For twelve compounds, MIC results are on record in DBAASP.

Assay in all cases: ≥ marks a high value that may be exact or a test limit, other limits are often not marked, values filed in µg/mL are converted to µM
Assay [1] concerns Staphylococcus aureus NCTC 10788.
Assay [2] has as its system Candida albicans NCPF 1467.
Assay [3] concerns Escherichia coli NCTC 10418.
Assay [4] deals with Candida albicans NCYC 1467.
For assay [5], the system named is Pseudomonas aeruginosa ATCC 27853.
The subject of assay [6] is Staphylococcus aureus ATCC 25923.
Assay [7] relates to Bacillus subtilis ATCC 6051.
Assay [8] concerns Escherichia coli ATCC 25922.
The subject of assay [9] is Pectobacterium carotovorum subsp. carotovorum DSM 30168.
The test system of assay [10] is Xanthomonas vesicatoria DSM 50861.
Assay [11] relates to Pseudomonas corrugata DSM 7228.
Assay [12] concerns Pseudomonas syringae pv. tomato DC3000.
Assay [13] deals with Pseudomonas syringae pv. syringae DSM 10604.
Assay [14] has as its system Clavibacter michiganensis subsp. michiganensis DSM 46294.
Assay [15] concerns Staphylococcus epidermidis ATCC 12228.
Assay [16] has as its system Staphylococcus aureus ATCC 6538.
Assay [17] has as its system Escherichia coli DH5alpha.
Assay [18] deals with Micrococcus luteus ATCC 4698.
In assay [19] the test system is Klebsiella pneumoniae ATCC 10031.
Assay [20] relates to Salmonella enterica subsp. enterica serovar Typhimurium ATCC 14028.
Assay [21] relates to Escherichia coli JW0013.

Each structure is given as a SMILES string. Values after ≈ are worked out from the molar mass of the structure shown.

For orientation: MIC means the lowest concentration found to suppress growth. A high value points to a need for much substance. In the case of `CC[C@H](C)[C@H](NC(=O)[C@H](C)NC(=O)[C@H](CO)NC(=O)[C@@H](NC(=O)[C@H](CC(C)C)NC(=O)CNC(=O)[C@H](C)NC(=O)[C@@H](NC(=O)[C@@H](NC(=O)[C@H](CO)NC(=O)[C@@H]1CCCN1C(=O)[C@@H](NC(=O)[C@H](CC(C)C)NC(=O)[C@H](CO)NC(=O)[C@H](Cc1ccccc1)NC(=O)[C@H](CC(C)C)NC(=O)[C@@H](N)Cc1ccccc1)[C@@H](C)CC)C(C)C)[C@@H](C)CC)C(C)C)C(=O)N[C@@H](CCCN=C(N)N)C(=O)N[C@@H](CC(N)=O)C(N)=O` [FLFSLIPSVIAGLVSAIRN], the MIC in assay [1] is 7.93 µM (≈ 16 µg/mL); in assay [2], 15.9 µM (≈ 32 µg/mL); in assay [3] it was no less than 254 µM.
With `CC[C@H](C)[C@H](NC(=O)CNC(=O)[C@H](CO)NC(=O)[C@H](CC(C)C)NC(=O)[C@H](CC(C)C)NC(=O)CN)C(=O)N[C@@H](CC(C)C)C(=O)NCC(=O)N[C@@H](C)C(=O)NCC(=O)N[C@@H](CCCCN)C(=O)N[C@@H](CCCCN)C(=O)N[C@H](C(=O)N[C@H](C(=O)O)C(C)C)[C@@H](C)CC` [GLLSGILGAGKKIV], the MIC in assay [1] is no less than 32 µM; in [4] it was no less than 32 µM; in [3], no less than 64 µM.
As for `CC[C@H](C)[C@H](NC(=O)[C@H](Cc1c[nH]c2ccccc12)NC(=O)[C@H](Cc1ccccc1)NC(=O)[C@H](CC(C)C)NC(=O)CN)C(=O)N[C@H](C(=O)N[C@@H](CCCCN)C(=O)N[C@@H](CCCCN)C(=O)N[C@H](C(=O)N[C@H](C(=O)NCC(=O)N[C@@H](CCCCN)C(=O)N[C@@H](CC(C)C)C(=O)N[C@@H](CCCN=C(N)N)C(=O)O)[C@@H](C)CC)[C@@H](C)O)[C@@H](C)CC` [GLFWIIKKTIGKLR], the MIC in assay [5] is 4.78 µM (≈ 8 µg/mL); in assay [6] it was 76.5 µM (≈ 128 µg/mL); in assay [7], 9.56 µM (≈ 16 µg/mL); in assay [8], 9.56 µM (≈ 16 µg/mL).
With `CC[C@H](C)[C@H](NC(=O)[C@H](CC(=O)O)NC(=O)[C@H](CCCCN)NC(=O)[C@H](Cc1c[nH]c2ccccc12)NC(=O)[C@H](CC(C)C)NC(=O)[C@H](C)N)C(=O)N[C@@H](CC(C)C)C(=O)N[C@@H](CCCCN)C(=O)N[C@@H](CC(N)=O)C(=O)N[C@@H](C)C(=O)NCC(=O)N[C@@H](CCCCN)C(=O)N[C@@H](C)C(=O)N[C@@H](C)C(=O)N[C@@H](CC(C)C)C(=O)N[C@@H](CC(N)=O)C(=O)N[C@@H](CCC(=O)O)C(=O)N[C@H](C(=O)N[C@@H](CC(N)=O)C(=O)N[C@@H](CCC(N)=O)C(=O)N[C@H](C(=O)N[C@H](C(=O)N[C@@H](CCC(N)=O)C(N)=O)C(C)C)[C@@H](C)CC)[C@@H](C)CC` [ALWKDILKNAGKAALNEINQIVQ], the MIC in assay [1] is no less than 256 µM; in assay [4], no less than 64 µM; in assay [3], no less than 32 µM.
Regarding `CSCC[C@H](NC(=O)CN)C(=O)N[C@@H](CCCN=C(N)N)C(=O)N1CCC[C@H]1C(=O)N1CCC[C@H]1C(=O)N[C@@H](Cc1c[nH]c2ccccc12)C(=O)N[C@@H](Cc1ccccc1)C(N)=O` [GMRPPWF], the MIC in assay [1] is no less than 288 µM; in assay [2], no less than 144 µM; in [3], no less than 575 µM.
As for `CC(C)C[C@H](NC(=O)[C@H](C)NC(=O)[C@H](CC(C)C)NC(=O)[C@H](CCCN=C(N)N)NC(=O)[C@H](CCCN=C(N)N)NC(=O)[C@@H](N)CCCCN)C(=O)N[C@@H](Cc1ccccc1)C(=O)N[C@@H](CCCN=C(N)N)C(=O)N[C@@H](CC(C)C)C(=O)N[C@@H](Cc1ccccc1)C(=O)N[C@@H](CCCN=C(N)N)C(=O)N[C@@H](CC(C)C)C(=O)N[C@@H](C)C(=O)N[C@@H](CC(C)C)C(=O)N[C@@H](CCCCN)C(=O)N[C@@H](CC(C)C)C(=O)N[C@H](C(=O)N[C@@H](CC(C)C)C(=O)N[C@@H](CCCCN)C(=O)N[C@@H](CCCCN)C(N)=O)C(C)C` [KRRLALFRLFRLALKLVLKK], the MIC in assay [9] turned out to be 4.03 µM (≈ 10 µg/mL); in assay [10] it was 1.01 µM (≈ 2.5 µg/mL); in assay [11] it was 4.03 µM (≈ 10 µg/mL); in assay [12] it was 1.01 µM (≈ 2.5 µg/mL); in assay [13], 4.03 µM (≈ 10 µg/mL); in [14] it was 1.01 µM (≈ 2.5 µg/mL).
As to `CC(C)C[C@H](NC(=O)[C@H](CC(C)C)NC(=O)[C@H](CCCCN)NC(=O)[C@H](CO)NC(=O)[C@@H](NC(=O)[C@H](C)NC(=O)[C@H](CCCCN)NC(=O)[C@H](Cc1ccccc1)NC(=O)[C@H](CC(C)C)NC(=O)[C@H](C)NC(=O)CNC(=O)[C@H](CC(C)C)NC(=O)[C@@H](N)Cc1ccccc1)C(C)C)C(=O)O` [FLGALFKAVSKLL], the MIC in [15] is 15.6 µM (≈ 22 µg/mL); in assay [16], 8.53 µM (≈ 12 µg/mL); in assay [17] it was 25.6 µM (≈ 36 µg/mL); in [18], 4.98 µM (≈ 7 µg/mL).
`NCCCC[C@@H]1NC(=O)[C@H](Cc2c[nH]c3ccccc23)NC(=O)CNC(=O)CNC(=O)[C@@H](N)CSSC[C@@H](C(=O)O)NC(=O)[C@H](CCCN=C(N)N)NC(=O)[C@H](CCCCN)NC(=O)[C@H](CCCN=C(N)N)NC1=O` [CGGWKRKRC] yielded an MIC in [18] of 0.8 µM (≈ 0.873 µg/mL). This counts as sub-micromolar.
Turning to `CC[C@H](C)[C@@H]1NC(=O)[C@H](CCCCN)NC(=O)[C@@H](NC(=O)[C@@H](NC(=O)[C@@H](NC(=O)[C@@H](NC(=O)[C@@H]2CCCN2C(=O)[C@H](CC(C)C)NC(=O)[C@H](Cc2ccccc2)NC(=O)[C@H](CC(N)=O)NC(=O)[C@H](C)NC(=O)[C@H](C)NC(=O)[C@H](CC(C)C)NC(=O)CNC(=O)[C@H](C)NC(=O)[C@H](CC(C)C)NC(=O)[C@@H](N)CC(C)C)[C@@H](C)O)[C@@H](C)CC)[C@@H](C)CC)CSSC[C@@H](C(=O)O)NC(=O)[C@H](CCCCN)NC(=O)[C@H](Cc2ccc(O)cc2)NC(=O)[C@H](CO)NC1=O` [LLAGLAANFLPTIICKISYKC], the MIC is no less than 44.4 µM in assay [19], no less than 44.4 µM in assay [17] and greater than 44.4 µM in assay [20].
As for `CC[C@H](C)[C@H](NC(=O)[C@H](CCCN=C(N)N)NC(=O)[C@H](CCCN=C(N)N)NC(=O)[C@@H]1CCCN1C(=O)[C@@H]1CCCN1C(=O)[C@H](CCCN=C(N)N)NC(=O)[C@@H]1CCCN1C(=O)[C@H](CCCN=C(N)N)NC(=O)[C@@H]1CCCN1C(=O)[C@H](CC(C)C)NC(=O)[C@H](Cc1ccc(O)cc1)NC(=O)[C@H](CCCCN)NC(=O)[C@@H]1CCCN1C(=O)[C@H](CCCCN)NC(=O)[C@H](CC(=O)O)NC(=O)[C@@H](N)C(C)C)C(=O)N[C@@H](Cc1ccc(O)cc1)C(=O)N[C@@H](CC(N)=O)C(=O)N[C@@H](CCCN=C(N)N)C(N)=O` [VDKPKYLPRPRPPRRIYNR], in assay [21], the MIC stood at 1.36 µM (≈ 3.3 µg/mL).
With `CC[C@H](C)[C@H](NC(=O)CNC(=O)CNC(=O)[C@H](C)NC(=O)[C@@H](NC(=O)[C@H](Cc1cnc[nH]1)NC(=O)[C@@H]1CCCN1C(=O)[C@@H](NC(=O)[C@H](CCSC)NC(=O)[C@H](CO)NC(=O)[C@H](CC(C)C)NC(=O)[C@@H](N)Cc1ccccc1)[C@@H](C)CC)[C@@H](C)CC)C(=O)N[C@@H](C)C(=O)N[C@@H](CO)C(=O)N[C@@H](CC(C)C)C(=O)N[C@H](C(=O)N[C@@H](CCCCN)C(=O)N[C@@H](CC(N)=O)C(=O)N[C@@H](CC(C)C)C(N)=O)C(C)C` [FLSMIPHIAGGIASLVKNL], the minimal inhibitory concentration (MIC) in [1] was 16.2 µM (≈ 32 µg/mL); in assay [2], no less than 32.3 µM; in [3], no less than 258 µM.
The like results for `CC[C@H](C)[C@H](NC(=O)CNC(=O)[C@@H](NC(=O)[C@H](C)NC(=O)[C@@H](NC(=O)[C@H](Cc1cnc[nH]1)NC(=O)[C@@H]1CCCN1C(=O)[C@@H](NC(=O)[C@H](CCSC)NC(=O)[C@H](CO)NC(=O)[C@H](Cc1ccccc1)NC(=O)[C@@H](N)Cc1ccccc1)[C@@H](C)CC)[C@@H](C)CC)[C@@H](C)O)C(=O)N[C@@H](C)C(=O)N[C@@H](CO)C(=O)N[C@@H](CC(C)C)C(=O)N[C@H](C(=O)N[C@@H](CCCCN)C(=O)N[C@@H](CC(N)=O)C(=O)N[C@@H](CC(C)C)C(N)=O)C(C)C` [FFSMIPHIATGIASLVKNL] were, in that order, 15.5 µM (≈ 32 µg/mL), 31.1 µM (≈ 64 µg/mL) and no less than 249 µM.
